Data published in patent US12403135B2, “4H-pyrrolo[3,2-c]pyridin-4-one derivatives” (Bayer Aktiengesellschaft, priority 2019, dated 2025).
Like-named read-outs stand apart in the source and are kept apart here.

Legend:
Type in all cases: cell-based
[1] = tested on: Ba/F3-EGFR-delLREA cells (EGFR del19/delLREA (746-750), E746_A750del); assay: BA/F3 EGFR del19/delLREA (746-750) (E746_A750del) cell survival assay, Cell Titer-Glo
Description: (§1) Plates were incubated at 37° C. for 48 h. Retrovirus was harvested by filtering the media supernatant through a 0.45 μm filter.
(§2) Ba/F3 cells purchased from DSMZ were grown in RPMI+10% FBS+10 ng/mL IL-3 and infected with filtered retroviral supernatant at a 1:2 dilution. Polybrene was added to a concentration of 8 μg/mL, plates were spun for 90 min, and incubated overnight at 37° C. 2 μg/mL puromycin was added to the infected cells 24 h after infection and cells were continually grown in the presence of puromycin and 10 ng/mL IL-3. Following stably expressing Ba/F3 cell lines were generated: Ba/F3-EGFR-L858R, Ba/F3-EGFR-delLREA, (Ba/F3-vector-control).
(§3) For cell survival assays, Ba/F3 cells were grown to a density of 1-2 million cells per mL, spun down and resuspended in media without IL-3, and replated at a concentration 200,000-500,000 cells per mL. The cells ectopically expressing pBABEpuro empty vector were plated with 10 ng/mL IL-3.
(§4) 2 days later, cells were plated in 50 μL in a 384 well plate at a concentration of 4000 cells per well for cells assayed in the absence of IL-3 and 2000 cells per well for cells (pBABE puro empty vector) assayed in the presence of IL-3. 100 nL of compound was added to each well using a 100 nL pin head, and plates were incubated at 37° C. for 48 h.
(§5) Cell viability was measured by adding 20 μL of Cell Titer-Glo Luminescent Cell Viability Reagent diluted 1:3 in PBS. Plates were sealed with Perkin Elmer Top-Seal, inverted several times to mix, and immediately centrifuged at 1000 rpm for 2 min. Plates were incubated in low light conditions for 8-10 min and luminescence was measured.

[2] = tested on: Ba/F3-EGFR-L858R C797S cells; assay: BA/F3 (EGFR L858R C797S) proliferation, acquired resistance; conditions: Table 11, acquired resistance space
Description: as §1
as §2, with “Ba/F3-EGFR-V769_D770 insASV, Ba/F3-EGFR-D770_N771 insNPG, Ba/F3-EGFR-N771_P772 insH, Ba/F3-EGFR-H773_V774 insNPH, Ba/F3-EGFR-D770_N771 insSVD C797S, Ba/F3-EGFR-E746_A750del C797S, Ba/F3-EGFR-L858R C797S, Ba/F3-EGFR L861Q and Ba/F3-ERBB2-A775_G776insYVMA” for “Ba/F3-EGFR-L858R, Ba/F3-EGFR-delLREA,”

[3] = target: Ba/F3-EGFR-L858R cells (Homo sapiens, UniProt P00533, L858R, cells depend on it); assay: BA/F3 EGFR L858R cell survival assay, Cell Titer-Glo; conditions: read-out: BA/F3 (EGFR L858R) IC50
Chain of Ba/F3-EGFR-L858R cells (P00533 whole entry L858R): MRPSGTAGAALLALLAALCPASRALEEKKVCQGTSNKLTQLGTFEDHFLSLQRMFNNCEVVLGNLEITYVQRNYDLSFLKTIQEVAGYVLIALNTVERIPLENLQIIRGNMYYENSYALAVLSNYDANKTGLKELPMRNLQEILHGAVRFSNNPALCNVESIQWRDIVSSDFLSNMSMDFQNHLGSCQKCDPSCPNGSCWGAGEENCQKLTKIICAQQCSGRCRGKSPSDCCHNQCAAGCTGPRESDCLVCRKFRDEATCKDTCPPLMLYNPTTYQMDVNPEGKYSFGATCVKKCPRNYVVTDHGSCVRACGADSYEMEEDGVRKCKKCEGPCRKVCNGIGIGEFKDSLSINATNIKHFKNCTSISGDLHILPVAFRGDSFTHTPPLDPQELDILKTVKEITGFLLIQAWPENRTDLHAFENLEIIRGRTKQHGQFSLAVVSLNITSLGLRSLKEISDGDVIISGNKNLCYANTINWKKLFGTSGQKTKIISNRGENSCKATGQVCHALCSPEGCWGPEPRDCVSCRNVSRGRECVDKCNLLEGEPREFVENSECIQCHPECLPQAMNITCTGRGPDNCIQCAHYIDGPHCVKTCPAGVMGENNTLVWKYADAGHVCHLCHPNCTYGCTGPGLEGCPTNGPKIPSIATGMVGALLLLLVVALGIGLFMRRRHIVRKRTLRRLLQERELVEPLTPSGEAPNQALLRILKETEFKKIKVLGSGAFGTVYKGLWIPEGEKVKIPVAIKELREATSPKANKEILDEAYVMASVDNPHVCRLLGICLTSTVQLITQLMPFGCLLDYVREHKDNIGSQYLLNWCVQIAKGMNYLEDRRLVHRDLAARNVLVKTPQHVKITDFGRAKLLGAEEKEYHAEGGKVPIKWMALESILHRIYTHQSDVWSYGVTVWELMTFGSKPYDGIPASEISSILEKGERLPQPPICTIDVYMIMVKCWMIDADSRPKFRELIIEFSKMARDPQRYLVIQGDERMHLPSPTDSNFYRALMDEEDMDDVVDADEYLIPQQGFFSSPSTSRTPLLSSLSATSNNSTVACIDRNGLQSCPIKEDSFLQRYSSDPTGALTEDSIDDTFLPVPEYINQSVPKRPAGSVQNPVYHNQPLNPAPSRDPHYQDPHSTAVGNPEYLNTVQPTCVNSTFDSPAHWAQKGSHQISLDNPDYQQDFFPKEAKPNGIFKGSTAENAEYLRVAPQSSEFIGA
Description: as §1, §2, §3, §4, §5

[4] = tested on: Ba/F3-EGFR-E746_A750del C797S cells; assay: BA/F3 (EGFR E746_A750del C797S) proliferation, acquired resistance; conditions: Table 11, acquired resistance space
Description: as §1
as §2, with “Ba/F3-EGFR-V769_D770 insASV, Ba/F3-EGFR-D770_N771 insNPG, Ba/F3-EGFR-N771_P772 insH, Ba/F3-EGFR-H773_V774 insNPH, Ba/F3-EGFR-D770_N771 insSVD C797S, Ba/F3-EGFR-E746_A750del C797S, Ba/F3-EGFR-L858R C797S, Ba/F3-EGFR L861Q and Ba/F3-ERBB2-A775_G776insYVMA” for “Ba/F3-EGFR-L858R, Ba/F3-EGFR-delLREA,”

[5] = target: Ba/F3-EGFR-D770_N771 insNPG cells (Homo sapiens, UniProt P00533, INS772GNP, cells depend on it); assay: BA/F3 (insNPG) proliferation, EGFR Exon20 insertion mutation; conditions: Table 9; EGFR Exon20 insertion mutations; read-out: BA/F3 (insNPG) IC50
Chain of Ba/F3-EGFR-D770_N771 insNPG cells (P00533 with tags, fused parts or gaps INS772GNP): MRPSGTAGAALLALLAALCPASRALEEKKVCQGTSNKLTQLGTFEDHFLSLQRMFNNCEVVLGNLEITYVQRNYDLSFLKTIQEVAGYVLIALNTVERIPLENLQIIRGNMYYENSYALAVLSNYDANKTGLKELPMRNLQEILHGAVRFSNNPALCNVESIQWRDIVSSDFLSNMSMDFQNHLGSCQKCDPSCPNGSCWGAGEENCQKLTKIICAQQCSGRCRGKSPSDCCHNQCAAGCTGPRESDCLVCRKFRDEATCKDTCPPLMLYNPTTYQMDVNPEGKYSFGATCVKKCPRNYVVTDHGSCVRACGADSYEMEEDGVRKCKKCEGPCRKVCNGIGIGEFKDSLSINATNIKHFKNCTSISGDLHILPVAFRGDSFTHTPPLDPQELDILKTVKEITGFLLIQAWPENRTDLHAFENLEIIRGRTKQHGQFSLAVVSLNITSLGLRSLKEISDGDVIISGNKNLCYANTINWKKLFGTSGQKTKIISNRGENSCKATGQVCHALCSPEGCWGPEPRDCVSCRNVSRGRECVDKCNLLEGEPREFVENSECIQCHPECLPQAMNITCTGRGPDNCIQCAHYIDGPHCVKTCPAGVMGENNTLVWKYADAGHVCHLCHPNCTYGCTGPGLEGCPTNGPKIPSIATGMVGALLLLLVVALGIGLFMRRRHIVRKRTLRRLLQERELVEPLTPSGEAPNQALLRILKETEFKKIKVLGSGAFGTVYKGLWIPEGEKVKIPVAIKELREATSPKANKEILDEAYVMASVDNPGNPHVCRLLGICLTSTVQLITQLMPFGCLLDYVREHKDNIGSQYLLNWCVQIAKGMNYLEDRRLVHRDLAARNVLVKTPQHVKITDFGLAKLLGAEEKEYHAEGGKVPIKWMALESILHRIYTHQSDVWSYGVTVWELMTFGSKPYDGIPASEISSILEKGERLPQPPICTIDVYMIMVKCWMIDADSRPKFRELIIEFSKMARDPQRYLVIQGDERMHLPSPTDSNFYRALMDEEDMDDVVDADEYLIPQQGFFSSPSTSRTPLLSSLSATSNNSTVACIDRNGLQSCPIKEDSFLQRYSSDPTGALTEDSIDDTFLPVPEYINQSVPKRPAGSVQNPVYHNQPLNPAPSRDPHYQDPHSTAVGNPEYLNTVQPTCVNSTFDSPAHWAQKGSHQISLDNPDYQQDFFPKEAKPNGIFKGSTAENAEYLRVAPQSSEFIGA
Description: as §1
as §2, with “Ba/F3-EGFR-V769_D770 insASV, Ba/F3-EGFR-D770_N771 insNPG, Ba/F3-EGFR-N771_P772 insH, Ba/F3-EGFR-H773_V774 insNPH, Ba/F3-EGFR-D770_N771 insSVD C797S, Ba/F3-EGFR-E746_A750del C797S, Ba/F3-EGFR-L858R C797S, Ba/F3-EGFR L861Q and Ba/F3-ERBB2-A775_G776insYVMA” for “Ba/F3-EGFR-L858R, Ba/F3-EGFR-delLREA,”

[6] = target: Ba/F3-EGFR-WT cells (BA/F3 wild type EGFR) (Homo sapiens, UniProt P00533); assay: BA/F3 (wild type) proliferation assay, Cell Titer-Glo; conditions: Table 7; plated with 10 ng/mL EGF, without IL-3, 48 h; read-out: BA/F3 (wild type) IC50
Description: as §1
as §2, with “Ba/F3-EGFR-WT.” for “Ba/F3-EGFR-L858R, Ba/F3-EGFR-delLREA, (Ba/F3-vector-control).”
For cell survival assays, Ba/F3 cells were grown to a density of 1-2 million cells per mL, spun down and resuspended in media without IL-3, and replated at a concentration 200,000-500,000 cells per mL. The cells ectopically expressing WT EGFR were plated with 10 ng/mL Millipore Culture grade EGF.
24 hours later, cells were plated in 30 μL in a 384 well plate at a concentration of 3200 cells per well for cells assayed in the absence of IL-3. 100 nL of compound was added to each well using a 100 nL pin head, and plates were incubated at 37° C. for 48 h.
as §5, with “30” for “20”, “Reagent.” for “Reagent diluted 1:3 in PBS.”

[7] = tested on: Ba/F3-EGFR L861Q cells; assay: BA/F3 (EGFR L861Q) proliferation, uncommon EGFR mutation; conditions: Table 10, classical activating and uncommon EGFR mutations
Description: as §1
as §2, with “Ba/F3-EGFR-V769_D770 insASV, Ba/F3-EGFR-D770_N771 insNPG, Ba/F3-EGFR-N771_P772 insH, Ba/F3-EGFR-H773_V774 insNPH, Ba/F3-EGFR-D770_N771 insSVD C797S, Ba/F3-EGFR-E746_A750del C797S, Ba/F3-EGFR-L858R C797S, Ba/F3-EGFR L861Q and Ba/F3-ERBB2-A775_G776insYVMA” for “Ba/F3-EGFR-L858R, Ba/F3-EGFR-delLREA,”

[8] = target: Ba/F3-EGFR-V769_D770 insASV cells (Homo sapiens, UniProt P00533, DUP767-769, cells depend on it); assay: BA/F3 (ASV) proliferation, EGFR Exon20 insertion mutation; conditions: Table 9; EGFR Exon20 insertion mutations; read-out: BA/F3 (ASV) IC50
Chain of Ba/F3-EGFR-V769_D770 insASV cells (P00533 with tags, fused parts or gaps DUP767-769): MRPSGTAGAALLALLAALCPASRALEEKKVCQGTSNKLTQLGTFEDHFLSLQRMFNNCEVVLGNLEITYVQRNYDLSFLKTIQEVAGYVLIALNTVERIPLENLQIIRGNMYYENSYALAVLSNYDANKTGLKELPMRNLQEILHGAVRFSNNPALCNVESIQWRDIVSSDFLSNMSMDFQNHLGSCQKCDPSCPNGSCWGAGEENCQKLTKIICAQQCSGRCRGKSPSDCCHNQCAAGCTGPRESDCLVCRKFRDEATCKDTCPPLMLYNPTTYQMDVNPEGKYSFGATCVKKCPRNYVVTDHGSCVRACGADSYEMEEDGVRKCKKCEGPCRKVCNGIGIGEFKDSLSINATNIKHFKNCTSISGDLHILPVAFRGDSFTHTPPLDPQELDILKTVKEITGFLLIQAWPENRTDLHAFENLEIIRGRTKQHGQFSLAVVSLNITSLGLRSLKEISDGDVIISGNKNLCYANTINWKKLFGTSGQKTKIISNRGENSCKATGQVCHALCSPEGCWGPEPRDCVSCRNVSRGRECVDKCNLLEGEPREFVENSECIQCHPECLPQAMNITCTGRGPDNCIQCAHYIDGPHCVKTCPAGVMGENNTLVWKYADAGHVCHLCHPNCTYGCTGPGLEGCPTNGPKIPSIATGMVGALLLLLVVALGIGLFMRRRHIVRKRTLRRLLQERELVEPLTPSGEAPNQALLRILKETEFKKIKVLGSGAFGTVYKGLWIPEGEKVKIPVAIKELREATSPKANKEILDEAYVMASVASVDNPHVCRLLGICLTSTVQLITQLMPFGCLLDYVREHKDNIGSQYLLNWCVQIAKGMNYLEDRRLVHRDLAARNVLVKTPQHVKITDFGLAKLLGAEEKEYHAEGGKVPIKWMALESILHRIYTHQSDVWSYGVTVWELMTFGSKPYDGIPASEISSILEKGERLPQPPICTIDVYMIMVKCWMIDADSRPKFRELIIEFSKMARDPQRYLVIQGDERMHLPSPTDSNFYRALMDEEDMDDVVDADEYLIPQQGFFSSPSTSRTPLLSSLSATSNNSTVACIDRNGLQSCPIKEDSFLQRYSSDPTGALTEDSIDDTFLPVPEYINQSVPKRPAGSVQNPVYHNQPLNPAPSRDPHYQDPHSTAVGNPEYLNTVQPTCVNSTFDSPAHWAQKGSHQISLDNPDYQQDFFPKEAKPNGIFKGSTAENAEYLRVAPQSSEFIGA
Description: as §1
as §2, with “Ba/F3-EGFR-V769_D770 insASV, Ba/F3-EGFR-D770_N771 insNPG, Ba/F3-EGFR-N771_P772 insH, Ba/F3-EGFR-H773_V774 insNPH, Ba/F3-EGFR-D770_N771 insSVD C797S, Ba/F3-EGFR-E746_A750del C797S, Ba/F3-EGFR-L858R C797S, Ba/F3-EGFR L861Q and Ba/F3-ERBB2-A775_G776insYVMA” for “Ba/F3-EGFR-L858R, Ba/F3-EGFR-delLREA,”

[9] = tested on: Ba/F3-EGFR-D770_N771 insSVD C797S cells; assay: BA/F3 (EGFR D770_N771 insSVD C797S) proliferation, acquired resistance; conditions: Ba/F3 EGFR-D770-N771ins_SVD; Table 11; acquired resistance space
Description: as §1
as §2, with “Ba/F3-EGFR-V769_D770 insASV, Ba/F3-EGFR-D770_N771 insNPG, Ba/F3-EGFR-N771_P772 insH, Ba/F3-EGFR-H773_V774 insNPH, Ba/F3-EGFR-D770_N771 insSVD C797S, Ba/F3-EGFR-E746_A750del C797S, Ba/F3-EGFR-L858R C797S, Ba/F3-EGFR L861Q and Ba/F3-ERBB2-A775_G776insYVMA” for “Ba/F3-EGFR-L858R, Ba/F3-EGFR-delLREA,”

[10] = target: Ba/F3-ERBB2-A775_G776insYVMA cells (Homo sapiens, UniProt P04626, DUP772-775, cells depend on it); assay: BA/F3 (ERBB2 A775_G776 insYVMA) proliferation; conditions: Table 12; read-out: BA/F3 (ERBB2 A775_G776 insYVMA) IC50
Chain of Ba/F3-ERBB2-A775_G776insYVMA cells (P04626 with tags, fused parts or gaps DUP772-775): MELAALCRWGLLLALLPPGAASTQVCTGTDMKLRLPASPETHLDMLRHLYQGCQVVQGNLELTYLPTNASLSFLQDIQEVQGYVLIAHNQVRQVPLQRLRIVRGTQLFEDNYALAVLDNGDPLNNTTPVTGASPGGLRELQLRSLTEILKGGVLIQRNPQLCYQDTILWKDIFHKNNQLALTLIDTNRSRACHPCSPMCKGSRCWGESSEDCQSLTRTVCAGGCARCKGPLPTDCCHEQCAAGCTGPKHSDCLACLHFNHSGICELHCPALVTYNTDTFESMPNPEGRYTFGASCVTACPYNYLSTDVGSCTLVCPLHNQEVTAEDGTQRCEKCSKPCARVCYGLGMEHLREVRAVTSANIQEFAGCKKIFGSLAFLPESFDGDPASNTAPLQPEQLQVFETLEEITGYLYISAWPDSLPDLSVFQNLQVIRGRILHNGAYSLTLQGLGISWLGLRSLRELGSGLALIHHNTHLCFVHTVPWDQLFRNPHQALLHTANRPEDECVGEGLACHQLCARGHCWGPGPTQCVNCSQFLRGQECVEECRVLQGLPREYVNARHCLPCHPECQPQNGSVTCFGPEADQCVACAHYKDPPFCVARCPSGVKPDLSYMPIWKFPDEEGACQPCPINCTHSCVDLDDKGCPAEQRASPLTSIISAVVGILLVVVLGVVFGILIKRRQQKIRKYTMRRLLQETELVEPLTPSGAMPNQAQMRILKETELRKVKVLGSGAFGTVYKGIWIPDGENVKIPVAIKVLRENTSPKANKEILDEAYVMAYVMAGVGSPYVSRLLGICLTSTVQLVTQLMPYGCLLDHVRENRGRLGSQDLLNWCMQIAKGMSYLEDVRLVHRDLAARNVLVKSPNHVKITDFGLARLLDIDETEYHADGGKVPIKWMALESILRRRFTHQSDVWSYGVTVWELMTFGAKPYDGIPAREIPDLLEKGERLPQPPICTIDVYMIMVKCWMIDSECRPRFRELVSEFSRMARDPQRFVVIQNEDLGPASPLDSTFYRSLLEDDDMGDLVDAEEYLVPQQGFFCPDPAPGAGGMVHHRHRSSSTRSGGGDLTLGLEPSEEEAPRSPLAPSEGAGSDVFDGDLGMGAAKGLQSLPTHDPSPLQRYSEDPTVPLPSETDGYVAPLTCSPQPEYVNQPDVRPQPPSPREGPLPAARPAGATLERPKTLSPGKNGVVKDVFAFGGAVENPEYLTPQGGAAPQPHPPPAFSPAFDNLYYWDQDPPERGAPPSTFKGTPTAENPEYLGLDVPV
Description: as §1
as §2, with “Ba/F3-EGFR-V769_D770 insASV, Ba/F3-EGFR-D770_N771 insNPG, Ba/F3-EGFR-N771_P772 insH, Ba/F3-EGFR-H773_V774 insNPH, Ba/F3-EGFR-D770_N771 insSVD C797S, Ba/F3-EGFR-E746_A750del C797S, Ba/F3-EGFR-L858R C797S, Ba/F3-EGFR L861Q and Ba/F3-ERBB2-A775_G776insYVMA” for “Ba/F3-EGFR-L858R, Ba/F3-EGFR-delLREA,”

With `COc1c(F)cccc1Nc1c(-c2ccncc2OCC(C)(C)OC)[nH]c2c1C(=O)NCC2` [Example 17, 3-[(3-fluoro-2-methoxyphenyl)amino]-2-[3-(2-methoxy-2-methylpropoxy)pyridin-4-yl]-1,5,6,7-tetrahydro-4H-pyrrolo[3,2-c]pyridin-4-one] the IC50 ([1]; Table 8, without IL-3, 48 h, read-out: BA/F3 (EGFR del19/delREA (746-750) IC50)) was 0.13 nM, the IC50 ([1]; Table 10, classical activating and uncommon EGFR mutations, read-out: BA/F3 (EGFR E746_A750del) IC50) was 0.575 nM and the IC50 [2] was 1.16 nM. For the same molecule, the GI50 ([3]; Table 8, without IL-3, 48 h) was 1.2 nM, the GI50 ([3]; Table 10, classical activating and uncommon EGFR mutations) was 1.49 nM and the IC50 [4] was 0.292 nM. For the same molecule, the GI50 [5] was 12.8 nM, the GI50 [6] was 397 nM and the IC50 [7] was 25.7 nM. It also gave a GI50 [8] of 15.3 nM, an IC50 [9] of 16.6 nM and a GI50 [10] of 17.1 nM.
